In ChEMBL document CHEMBL1145498, “A systematic interaction map of validated kinase inhibitors with Ser/Thr kinases” (Proc Natl Acad Sci U S A, 2007):

Legend:
[1] = biological target: STE20-like serine/threonine-protein kinase (Homo sapiens) (UniProt Q9H2G2)
[2] = biological target: Serine/threonine-protein kinase pim-2 (Homo sapiens, UniProt Q9P1W9)
[3] = biological target: T1, Calcium/calmodulin-dependent protein kinase type IV (Homo sapiens) (UniProt Q16566)
T1 sequence (whole entry): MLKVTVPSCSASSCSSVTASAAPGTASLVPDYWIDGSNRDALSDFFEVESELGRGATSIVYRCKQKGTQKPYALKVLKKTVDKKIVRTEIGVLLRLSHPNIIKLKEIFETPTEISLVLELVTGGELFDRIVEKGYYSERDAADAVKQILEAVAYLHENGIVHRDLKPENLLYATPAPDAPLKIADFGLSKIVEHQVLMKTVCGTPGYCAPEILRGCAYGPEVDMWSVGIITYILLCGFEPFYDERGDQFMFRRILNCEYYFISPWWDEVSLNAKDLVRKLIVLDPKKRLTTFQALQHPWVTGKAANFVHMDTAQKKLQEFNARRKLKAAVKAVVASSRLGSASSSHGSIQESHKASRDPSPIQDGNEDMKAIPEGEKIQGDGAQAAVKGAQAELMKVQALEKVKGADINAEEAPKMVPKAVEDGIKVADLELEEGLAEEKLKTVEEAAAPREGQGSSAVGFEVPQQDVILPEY

[4] = biological target: Mitogen-activated protein kinase 11 (Homo sapiens, UniProt Q15759)
Chain of Mitogen-activated protein kinase 11 (Q15759 whole entry): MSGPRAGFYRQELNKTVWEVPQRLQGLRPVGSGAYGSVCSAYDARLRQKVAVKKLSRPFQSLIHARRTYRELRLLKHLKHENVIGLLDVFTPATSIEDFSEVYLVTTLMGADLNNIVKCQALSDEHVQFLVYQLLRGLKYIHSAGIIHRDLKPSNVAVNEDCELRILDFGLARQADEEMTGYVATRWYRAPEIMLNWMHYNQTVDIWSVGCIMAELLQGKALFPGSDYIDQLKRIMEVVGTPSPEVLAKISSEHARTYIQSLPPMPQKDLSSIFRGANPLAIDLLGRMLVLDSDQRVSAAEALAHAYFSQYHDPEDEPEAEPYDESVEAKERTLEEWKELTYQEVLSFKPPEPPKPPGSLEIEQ

[5] = biological target: Serine/threonine-protein kinase pim-3 (Homo sapiens) (UniProt Q86V86)
[6] = biological target: Cyclin-dependent kinase-like 1 (Homo sapiens) (UniProt Q00532)
[7] = biological target: Serine/threonine-protein kinase pim-1 (Homo sapiens) (UniProt P11309)
Chain of Serine/threonine-protein kinase pim-1 (Homo sapiens) (P11309 whole entry, looked up): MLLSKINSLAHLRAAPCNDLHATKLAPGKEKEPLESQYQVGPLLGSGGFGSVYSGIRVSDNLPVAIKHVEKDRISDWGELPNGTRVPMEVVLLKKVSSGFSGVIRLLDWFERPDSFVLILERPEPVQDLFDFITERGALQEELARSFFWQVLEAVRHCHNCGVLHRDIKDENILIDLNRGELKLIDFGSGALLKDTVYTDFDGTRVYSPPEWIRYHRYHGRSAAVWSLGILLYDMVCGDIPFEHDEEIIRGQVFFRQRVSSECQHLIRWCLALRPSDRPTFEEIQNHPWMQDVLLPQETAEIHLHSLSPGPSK

[8] = biological target: Tyrosine-protein kinase JAK1 (Homo sapiens) (UniProt P23458)
Chain of Tyrosine-protein kinase JAK1 (Homo sapiens) (P23458 whole entry): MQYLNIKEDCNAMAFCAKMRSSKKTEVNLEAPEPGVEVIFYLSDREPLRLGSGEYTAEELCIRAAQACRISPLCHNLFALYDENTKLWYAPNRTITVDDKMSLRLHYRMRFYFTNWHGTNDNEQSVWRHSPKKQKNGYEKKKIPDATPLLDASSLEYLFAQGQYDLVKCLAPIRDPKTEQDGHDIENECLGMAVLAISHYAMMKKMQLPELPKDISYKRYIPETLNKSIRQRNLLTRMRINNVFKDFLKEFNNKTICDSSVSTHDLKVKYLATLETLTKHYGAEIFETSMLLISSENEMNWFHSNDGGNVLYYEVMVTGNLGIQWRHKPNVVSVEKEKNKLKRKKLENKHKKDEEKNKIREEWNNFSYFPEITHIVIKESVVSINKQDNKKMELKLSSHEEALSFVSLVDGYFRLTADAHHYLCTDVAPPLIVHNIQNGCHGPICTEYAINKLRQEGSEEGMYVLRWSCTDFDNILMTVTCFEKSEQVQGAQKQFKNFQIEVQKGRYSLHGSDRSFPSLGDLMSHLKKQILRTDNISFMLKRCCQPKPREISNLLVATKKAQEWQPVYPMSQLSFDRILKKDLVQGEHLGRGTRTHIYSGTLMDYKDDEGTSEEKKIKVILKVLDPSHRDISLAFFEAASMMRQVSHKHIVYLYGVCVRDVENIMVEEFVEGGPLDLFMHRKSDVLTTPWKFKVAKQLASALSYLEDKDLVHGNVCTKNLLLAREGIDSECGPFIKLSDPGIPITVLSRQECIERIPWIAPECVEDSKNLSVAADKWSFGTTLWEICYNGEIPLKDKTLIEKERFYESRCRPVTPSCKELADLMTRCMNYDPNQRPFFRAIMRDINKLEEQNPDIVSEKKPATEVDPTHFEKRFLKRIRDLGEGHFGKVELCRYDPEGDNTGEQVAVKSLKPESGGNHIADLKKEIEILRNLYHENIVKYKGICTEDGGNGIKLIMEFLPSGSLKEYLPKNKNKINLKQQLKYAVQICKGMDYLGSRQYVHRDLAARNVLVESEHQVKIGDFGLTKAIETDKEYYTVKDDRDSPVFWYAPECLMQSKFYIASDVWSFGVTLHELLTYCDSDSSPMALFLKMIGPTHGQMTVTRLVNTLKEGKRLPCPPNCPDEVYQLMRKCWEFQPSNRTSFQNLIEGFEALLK

[9] = biological target: Serine/threonine-protein kinase PLK1 (Homo sapiens) (UniProt P53350)
Chain of Serine/threonine-protein kinase PLK1 (Homo sapiens) (P53350 whole entry): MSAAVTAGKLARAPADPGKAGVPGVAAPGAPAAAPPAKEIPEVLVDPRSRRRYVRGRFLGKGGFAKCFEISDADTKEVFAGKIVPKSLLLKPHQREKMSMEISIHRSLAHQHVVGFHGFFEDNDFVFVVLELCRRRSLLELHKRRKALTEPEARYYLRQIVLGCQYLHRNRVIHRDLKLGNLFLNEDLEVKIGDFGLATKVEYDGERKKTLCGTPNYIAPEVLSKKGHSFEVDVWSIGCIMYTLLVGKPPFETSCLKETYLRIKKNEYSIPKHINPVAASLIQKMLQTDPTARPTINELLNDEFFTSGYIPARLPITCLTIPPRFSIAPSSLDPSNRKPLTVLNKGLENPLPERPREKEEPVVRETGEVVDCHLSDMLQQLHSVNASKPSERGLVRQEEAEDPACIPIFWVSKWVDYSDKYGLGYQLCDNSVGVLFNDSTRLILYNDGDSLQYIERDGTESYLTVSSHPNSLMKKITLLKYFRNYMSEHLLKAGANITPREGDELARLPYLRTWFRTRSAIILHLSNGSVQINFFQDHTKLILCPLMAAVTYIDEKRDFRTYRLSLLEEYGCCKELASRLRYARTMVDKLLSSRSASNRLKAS

[10] = biological target: Serine/threonine-protein kinase PAK 4 (Homo sapiens) (UniProt O96013)
Chain of Serine/threonine-protein kinase PAK 4 (Homo sapiens) (O96013 whole entry, looked up): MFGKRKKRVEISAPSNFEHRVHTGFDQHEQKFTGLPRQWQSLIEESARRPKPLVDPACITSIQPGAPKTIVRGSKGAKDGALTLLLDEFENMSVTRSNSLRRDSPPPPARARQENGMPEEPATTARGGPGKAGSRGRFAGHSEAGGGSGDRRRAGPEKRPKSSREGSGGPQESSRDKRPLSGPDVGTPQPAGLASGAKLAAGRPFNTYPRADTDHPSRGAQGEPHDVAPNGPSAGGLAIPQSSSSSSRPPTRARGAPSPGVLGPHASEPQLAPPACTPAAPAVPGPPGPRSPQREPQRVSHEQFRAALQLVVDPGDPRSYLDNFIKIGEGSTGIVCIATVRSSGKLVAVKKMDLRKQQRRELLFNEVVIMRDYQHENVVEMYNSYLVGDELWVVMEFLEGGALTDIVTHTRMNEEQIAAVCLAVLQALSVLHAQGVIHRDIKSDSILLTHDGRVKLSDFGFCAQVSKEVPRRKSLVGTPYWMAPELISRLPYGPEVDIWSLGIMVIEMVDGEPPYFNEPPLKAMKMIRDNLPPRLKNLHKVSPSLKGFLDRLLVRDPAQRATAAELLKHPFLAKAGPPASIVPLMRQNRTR

[11] = biological target: Serine/threonine-protein kinase 16 (Homo sapiens) (UniProt O75716)
[12] = biological target: Ribosomal protein S6 kinase alpha-3 (Homo sapiens) (UniProt P51812)
[13] = biological target: T2, Serine/threonine-protein kinase 4 (Homo sapiens) (UniProt Q13043)
T2 sequence (whole entry): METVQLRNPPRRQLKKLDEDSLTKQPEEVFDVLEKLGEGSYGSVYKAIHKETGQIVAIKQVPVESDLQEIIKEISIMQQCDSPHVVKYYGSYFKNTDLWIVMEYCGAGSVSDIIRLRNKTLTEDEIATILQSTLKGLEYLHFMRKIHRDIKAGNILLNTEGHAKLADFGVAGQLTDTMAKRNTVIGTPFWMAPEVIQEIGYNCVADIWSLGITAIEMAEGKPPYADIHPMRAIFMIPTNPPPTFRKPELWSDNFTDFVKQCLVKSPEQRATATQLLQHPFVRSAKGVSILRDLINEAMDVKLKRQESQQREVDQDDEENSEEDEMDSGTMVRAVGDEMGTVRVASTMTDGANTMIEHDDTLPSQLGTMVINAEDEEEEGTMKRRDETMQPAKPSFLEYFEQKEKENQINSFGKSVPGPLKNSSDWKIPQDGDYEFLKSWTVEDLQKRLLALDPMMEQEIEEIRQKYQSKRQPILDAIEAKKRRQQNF

[14] = biological target: T3, Serine/threonine-protein kinase VRK3 (Homo sapiens) (UniProt Q8IV63)
T3 sequence (whole entry): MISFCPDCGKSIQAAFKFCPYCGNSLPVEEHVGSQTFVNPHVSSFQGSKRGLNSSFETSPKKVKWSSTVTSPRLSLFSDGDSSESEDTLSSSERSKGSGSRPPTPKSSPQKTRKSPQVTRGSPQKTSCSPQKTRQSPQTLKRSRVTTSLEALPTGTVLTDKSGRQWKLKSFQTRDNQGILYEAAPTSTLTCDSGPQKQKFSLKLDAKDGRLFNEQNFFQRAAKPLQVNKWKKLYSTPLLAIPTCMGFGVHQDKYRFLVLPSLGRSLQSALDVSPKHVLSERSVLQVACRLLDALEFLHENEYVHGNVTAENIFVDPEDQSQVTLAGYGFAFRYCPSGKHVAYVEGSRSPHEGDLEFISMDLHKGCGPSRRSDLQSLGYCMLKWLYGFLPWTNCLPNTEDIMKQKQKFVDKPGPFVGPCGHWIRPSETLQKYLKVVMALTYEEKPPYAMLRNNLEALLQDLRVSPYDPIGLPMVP

[15] = biological target: Calcium/calmodulin-dependent protein kinase type 1G (Homo sapiens) (UniProt Q96NX5)
Chain of Calcium/calmodulin-dependent protein kinase type 1G (Homo sapiens) (Q96NX5 whole entry): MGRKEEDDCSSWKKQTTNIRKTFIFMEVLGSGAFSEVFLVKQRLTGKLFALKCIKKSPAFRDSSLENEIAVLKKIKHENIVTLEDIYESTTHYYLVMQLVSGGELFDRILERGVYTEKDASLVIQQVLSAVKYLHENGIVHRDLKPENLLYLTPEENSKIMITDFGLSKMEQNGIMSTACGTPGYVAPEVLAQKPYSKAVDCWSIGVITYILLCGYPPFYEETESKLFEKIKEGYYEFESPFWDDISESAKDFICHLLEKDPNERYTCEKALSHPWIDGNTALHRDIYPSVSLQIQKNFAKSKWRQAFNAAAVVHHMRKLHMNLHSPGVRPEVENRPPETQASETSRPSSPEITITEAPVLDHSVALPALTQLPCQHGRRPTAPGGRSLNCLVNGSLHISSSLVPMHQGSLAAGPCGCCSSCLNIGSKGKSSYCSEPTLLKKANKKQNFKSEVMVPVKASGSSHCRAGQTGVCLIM

[16] = biological target: Serine/threonine-protein kinase VRK2 (Homo sapiens) (UniProt Q86Y07)
[17] = biological target: Cyclin-dependent kinase 16 (Homo sapiens) (UniProt Q00536)
Chain of Cyclin-dependent kinase 16 (Homo sapiens) (Q00536 whole entry): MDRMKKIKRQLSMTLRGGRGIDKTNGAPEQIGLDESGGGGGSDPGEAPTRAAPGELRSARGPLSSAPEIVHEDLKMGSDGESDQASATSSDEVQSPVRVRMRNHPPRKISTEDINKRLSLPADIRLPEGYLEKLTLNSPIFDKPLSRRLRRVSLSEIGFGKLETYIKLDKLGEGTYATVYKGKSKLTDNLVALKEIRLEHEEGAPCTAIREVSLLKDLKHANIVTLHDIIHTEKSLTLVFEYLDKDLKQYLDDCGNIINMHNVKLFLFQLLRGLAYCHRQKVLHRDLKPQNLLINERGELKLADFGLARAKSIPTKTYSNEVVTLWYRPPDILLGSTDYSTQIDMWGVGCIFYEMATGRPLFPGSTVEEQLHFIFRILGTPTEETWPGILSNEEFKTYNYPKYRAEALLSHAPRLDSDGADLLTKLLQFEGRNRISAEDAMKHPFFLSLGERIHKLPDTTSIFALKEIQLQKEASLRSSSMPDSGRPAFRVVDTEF

[18] = biological target: Serine/threonine-protein kinase 26 (Homo sapiens) (UniProt Q9P289)
Chain of Serine/threonine-protein kinase 26 (Homo sapiens) (Q9P289 2-416 limits assumed): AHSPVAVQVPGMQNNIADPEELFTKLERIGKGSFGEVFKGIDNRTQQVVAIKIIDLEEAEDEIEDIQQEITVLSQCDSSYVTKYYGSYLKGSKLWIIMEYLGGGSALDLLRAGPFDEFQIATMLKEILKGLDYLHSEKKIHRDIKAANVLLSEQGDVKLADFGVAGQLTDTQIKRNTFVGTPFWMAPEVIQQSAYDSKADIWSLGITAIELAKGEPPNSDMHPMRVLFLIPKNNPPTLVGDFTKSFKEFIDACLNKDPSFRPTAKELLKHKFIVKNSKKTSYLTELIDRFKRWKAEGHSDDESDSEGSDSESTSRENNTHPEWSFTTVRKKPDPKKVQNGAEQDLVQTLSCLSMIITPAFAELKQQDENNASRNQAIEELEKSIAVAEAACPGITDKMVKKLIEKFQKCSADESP

[19] = biological target: T4, Serine/threonine-protein kinase Nek2 (Homo sapiens) (UniProt P51955)
T4 sequence (whole entry): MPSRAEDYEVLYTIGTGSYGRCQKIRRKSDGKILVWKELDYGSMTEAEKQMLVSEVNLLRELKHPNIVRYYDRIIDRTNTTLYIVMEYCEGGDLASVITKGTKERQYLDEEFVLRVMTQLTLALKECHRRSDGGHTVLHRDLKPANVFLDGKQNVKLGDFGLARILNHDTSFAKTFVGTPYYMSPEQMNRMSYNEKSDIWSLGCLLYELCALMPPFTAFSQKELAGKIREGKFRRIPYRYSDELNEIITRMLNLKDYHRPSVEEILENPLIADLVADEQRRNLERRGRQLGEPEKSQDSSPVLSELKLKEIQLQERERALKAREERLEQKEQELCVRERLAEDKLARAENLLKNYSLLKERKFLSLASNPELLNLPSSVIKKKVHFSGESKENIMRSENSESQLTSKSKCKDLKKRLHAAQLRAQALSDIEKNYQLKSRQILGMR

[20] = biological target: Serine/threonine-protein kinase 10 (Homo sapiens) (UniProt O94804)

| Structure (SMILES) | ΔTm [1] [°C] | ΔTm [2] [°C] | ΔTm [3] [°C] | ΔTm [4] [°C] | ΔTm [5] [°C] | ΔTm [6] [°C] | ΔTm [7] [°C] | ΔTm [8] [°C] | ΔTm [9] [°C] | ΔTm [10] [°C] | ΔTm [11] [°C] | ΔTm [12] [°C] | ΔTm [13] [°C] | ΔTm [14] [°C] | ΔTm [15] [°C] | ΔTm [16] [°C] | ΔTm [17] [°C] | ΔTm [18] [°C] | ΔTm [19] [°C] | ΔTm [20] [°C] |
| --- | --- | --- | --- | --- | --- | --- | --- | --- | --- | --- | --- | --- | --- | --- | --- | --- | --- | --- | --- | --- |
| Cc1cncc2cccc(S(=O)(=O)N3CCCNC[C@@H]3C)c12 | 2.9 | 0.7 | 0.3 | -0.1 | 0.8 | 0.1 | 0.7 | -0.1 | 0.7 | 0.7 | 1.1 | 5.5 | 3.3 | 0.4 | -0.1 | 1.2 | -0.6 | 1.5 | -0.2 | 3.5 |
| NC(=O)c1ccc(-c2nc(-c3ccc4c(c3)OCCO4)c(-c3ccccn3)[nH]2)cc1 | -1.1 | -0.2 | -0.9 | -0.1 | 0.4 | -0.3 | -0.5 | 1.3 | -0.5 | 0.9 | 0.1 | 0 | 1.1 | 0.3 | 1 | 0.5 | -0.4 | -1.1 | 1.1 | 0.4 |
| Ic1cccc(CSc2nnc(-c3ccncc3)o2)c1 | -0.4 | 0.1 | -0.5 | -0.4 | 0.2 | -0.7 | -1.5 | -0.3 | -0.9 | -0.1 | 0.2 | 0 | -0.4 | -0.1 | -0.7 | -0.3 | -0.8 | -0.5 | -0.2 | 1.4 |
| Nc1ncnc2c1c(I)cn2[C@@H]1O[C@H](CO)[C@@H](O)[C@H]1O | 4.2 | 1 | 2.5 | -0.4 | 1.5 | 0.2 | 1.1 | 0.2 | 1 | 1.1 | 3.9 | 1.4 | 4.7 | 0.1 | 0.2 | 0.1 | 0.1 | 1.4 | 0.4 | 4.7 |
| COC(=O)[C@]1(O)C[C@@H]2O[C@@]1(C)n1c3ccccc3c3c4c(c5c6ccccc6n2c5c31)C(=O)NC4 (single isomer, unassigned) | 6.3 | 3.8 | 1.8 | 0.7 | 5.8 | 6.9 | 3.7 | 0.8 | 2.6 | 3.9 | 2.3 | 5.1 | 9.5 | -0.2 | 2.2 | -0.2 | 0.8 | 3 | 1.9 | 10.9 |
| Nc1nc(Nc2ccc(S(N)(=O)=O)cc2)nn1C(=S)Nc1c(F)cccc1F | 12.1 | 0.6 | -0.2 | 1.9 | 1.9 | 4.3 | 0.4 | 10.4 | 4.3 | 6.3 | 7.8 | 9.6 | 12.9 | 0.9 | 2 | 2 | 10 | 11.1 | 2.5 | 15.5 |

The next lines start with the values.

| ΔTm [1] [°C] | ΔTm [2] [°C] | ΔTm [3] [°C] | ΔTm [4] [°C] | ΔTm [5] [°C] | ΔTm [6] [°C] | ΔTm [7] [°C] | ΔTm [8] [°C] | ΔTm [9] [°C] | ΔTm [10] [°C] | ΔTm [11] [°C] | ΔTm [12] [°C] | ΔTm [13] [°C] | ΔTm [14] [°C] | ΔTm [15] [°C] | ΔTm [16] [°C] | ΔTm [17] [°C] | ΔTm [18] [°C] | ΔTm [19] [°C] | ΔTm [20] [°C] | Structure (SMILES) |
| --- | --- | --- | --- | --- | --- | --- | --- | --- | --- | --- | --- | --- | --- | --- | --- | --- | --- | --- | --- | --- |
| 0.3 | 0.1 | 0 | 1 | 0.6 | -0.3 | -0.4 | 0.1 | 0.3 | 0.7 | 0.3 | -0.6 | -0.1 | 0.2 | 0.1 | 0.4 | -0.1 | 0.2 | 0.5 | -0.4 | Oc1cccc(-c2nc(N3CCOCC3)c3oc4ncccc4c3n2)c1 |
| 3.9 | 0 | 4.5 | 0.7 | 6.4 | 3.8 | 2 | 9.4 | 0.2 | 1.7 | 5.1 | 0 | 7.8 | -0.8 | 1.1 | 3.1 | 3.2 | 2.5 | 2.5 | 4.2 | O=Nc1c(-c2c(O)[nH]c3ccccc23)[nH]c2ccccc12 |
| 2.4 | 0.2 | 0.4 | 7.1 | 0.5 | 0.4 | -0.1 | 0.3 | 0.3 | 0.7 | 0.1 | 0 | 1.8 | -1.1 | 1.3 | 0.7 | 0.3 | -0.5 | 1.4 | 4.3 | O=c1c(-c2ccc(F)cc2)c(-c2ccncc2)[nH]n1-c1ccc(Cl)cc1 |
| 7.6 | 5.6 | 1.7 | 0.5 | 6.7 | 2.7 | 8.3 | -0.5 | 0.2 | 4.3 | 4.3 | 1.9 | 2.2 | 0.9 | 0.3 | 0.6 | 4.7 | 2.1 | 0.9 | 6.7 | Cn1cc(C2=C(c3cn(CCCN)c4ccccc34)C(=O)NC2=O)c2ccccc21 |
